Reference: ChEMBL document CHEMBL5550161, “Discovery of novel small molecules targeting the USP21/JAK2/STAT3 axis for the treatment of triple-negative breast cancer” (Eur J Med Chem, 2024)
Calls of active or inactive are those of the source. The calls are words filed in the database; no cut-off is given here.

Legend:
MDA-MB-231 = experiment: Anti-proliferative activity against human MDA-MB-231 cells assessed as cell growth inhibition incubated for 72 hrs by MTT assay; type: functional, cell-based; details: MDA-MB-231, 72 h
Hs-578T = experiment: Anti-proliferative activity against human Hs-578T cells assessed as cell growth inhibition incubated for 72 hrs by MTT assay; type: functional, cell-based
HCC1806 [1] = experiment: Anti-proliferative activity against human HCC1806 cells assessed as cell growth inhibition incubated for 72 hrs by MTT assay; type: functional, cell-based; details: HCC1806, 72 h
HCC1806 [2] = experiment: Antitumor activity against human HCC1806 cells xenografted in Balb/c mouse assessed as reduction in tumor weight at 2.5 mg/kg, ip administered once a week measured after 14 days; type: functional, organism-based; details: time 14.0 day
HCC1806 [3] = experiment: Antitumor activity against human HCC1806 cells xenografted in Balb/c mouse at 2.5 mg/kg, ip administered once a week measured after 14 days relative to control; type: functional; details: HCC1806, 336 h, time 14 day, read-out: TGI

- IC50 (MDA-MB-231): 210 nM
- IC50 (HCC1806 [1]): 340 nM
SMILES: COc1cccc2c1C(=O)c1c(O)c3c(c(O)c1C2=O)C[C@@](O)(C(=O)CO)C[C@@H]3O[C@H]1C[C@H](N)[C@H](O)[C@H](C)O1 [DOXORUBICIN]
- IC50 (Hs-578T): 1070 nM
- Activity (HCC1806 [2]): Active
- inhibition in vivo at 2.5 mg/kg (HCC1806 [3]): 43.2%
